Results on 13 compounds are retold here after patent publication EP1100483B1, “GLUCOCORTICOID-SELECTIVE ANTI-INFLAMMATORY AGENTS” (Abbott Laboratories, priority 1998, dated 2000).

The assay deals with T1, human progesterone receptor-A [PRA] isoform (Homo sapiens, UniProt P06401).
T1 construct: purchased Ligand Pharmaceuticals (San Diego, CA); host or cells: insect SF21 cells (baculovirus)
T1 sequence (P06401 1-769 isoform P06401-2): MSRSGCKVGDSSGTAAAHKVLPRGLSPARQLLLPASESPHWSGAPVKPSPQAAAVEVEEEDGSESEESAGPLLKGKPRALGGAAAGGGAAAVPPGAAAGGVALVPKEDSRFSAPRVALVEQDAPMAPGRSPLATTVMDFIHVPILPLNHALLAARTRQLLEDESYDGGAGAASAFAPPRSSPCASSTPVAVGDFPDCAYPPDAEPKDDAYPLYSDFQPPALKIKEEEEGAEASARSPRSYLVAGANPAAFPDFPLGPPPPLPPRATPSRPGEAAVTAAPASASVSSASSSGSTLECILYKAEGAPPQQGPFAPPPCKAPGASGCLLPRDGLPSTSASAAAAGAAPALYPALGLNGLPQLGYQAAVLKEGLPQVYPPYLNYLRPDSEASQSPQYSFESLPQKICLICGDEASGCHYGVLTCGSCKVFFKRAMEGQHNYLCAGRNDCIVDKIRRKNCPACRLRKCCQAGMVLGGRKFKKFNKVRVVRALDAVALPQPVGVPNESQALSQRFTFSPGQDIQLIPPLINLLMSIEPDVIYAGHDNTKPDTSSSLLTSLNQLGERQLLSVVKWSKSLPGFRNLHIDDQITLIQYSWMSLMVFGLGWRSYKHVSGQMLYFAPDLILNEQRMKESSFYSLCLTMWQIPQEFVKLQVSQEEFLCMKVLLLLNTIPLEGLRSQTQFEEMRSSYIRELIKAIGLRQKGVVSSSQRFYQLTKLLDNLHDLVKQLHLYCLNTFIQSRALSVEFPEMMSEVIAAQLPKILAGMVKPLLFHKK
Nature of the assay: progesterone receptor cytosol (PR) binding assay, [3H]-progesterone competition. Conditions: [3H]Prog ~0.8 nM, 4 °C overnight, Cheng-Prusoff. An excerpt:
For glucocorticoid receptor (OR) cytosol binding assays, the procedure described in Anal. Biochem. 1970, 37, 244-252, hereby incorporated by reference, was used. Briefly, cytosol preparations of human glucocorticoid receptor-α [GRX] isoform and human progesterone receptor-A [PRA] isoform were obtained from Ligand Pharmaceuticals (San Diego, CA). Both receptor cDNAs were cloned into baculovirus expression vectors and expressed in insect SF21 cells. [^3H]-dexamethasone (Dex, specific activity 82-86 Ci/mmole) and [^3H]-progesterone (Prog, specific activity 97-102 Ci/mmol) were purchased from Amersham Life Sciences (Arlington Heights, IL). Glass fiber type C multiscreen MAFC NOB plates were from Millipore ( Burlington, MA). Hydroxyapatide Bio-Gel HTP gel was obtained from Bio-Rad Laboratories (Hercules. CA). Tris(hydroxymethyl)aminomethane (Tris), ethylenediaminetetraacetic acid (EDTA), glycerol, dithiothreitol (DTT) and sodium moylybdate were obtained from Sigma Chemicals (St. Louis, MO). Microscint-20 scintillation fluid was obtained from Packard Instrument (Meriden, CT).
Stock solutions (32 mM) of compounds were prepared in dimethylsulfoxide (DMSO), and 50X solutions of test compounds were prepared from the 32 mM solution with a 50:50 mixture of DMSO/ethanol. The 50X solution was then diluted with binding buffer that contained 10 mM Tri-HCl, 1.5 mM EDTA, 10% glycerol, 1 mM DTT, 20 mM sodium molybdate. pH 7.5 at 4 °C. 1% DMSO/ethanol was also present in the binding assay.
For progesterone receptor cytosol (PR) binding assays, [^3H]Prog (~36,000 dpm (∼0.8 nM)), PRA cytosol (~40 µg protein), test compounds and binding buffer were mixed in a total volume of 200 µL and incubated at 4 °C overnight in a plate shaker. Specific binding was defined as the difference between binding of [^3H]Prog in the absence and in the presence of 3 µM unlabeled Prog.
After an overnight incubation, 50 µL of hydroxyapatite (25 % weight/volume) slurry were added to each well and plates were incubated for 10 min at 4 °C in a plate shaker. Plates were suctioned with a Millipore vacuum manifold and each well was rinsed with 300 µL of ice-cold binding buffer. A 250 µL aliquot of Packard Microscint-20 was added to each well and the wells were shaken at room temperature for 20 minutes. The amount of radioactivity was determined with a Packard TopCount plate reader.
The Ki of test compounds was determined using the Cheng-Prusoff equation Ki =IC50/(1+[L*]/[KL]) where L* is the concentration of radioligand and KL is the dissociation constant of the radioligand determined from saturation analysis. For GRX, KL was ∼1.5 nM, and for PRA, KL was ~4.5 nM.
The Ki is the dissociation constant of the complex between target and ligand, obtained from inhibition or displacement. The low end stands for tighter binding, the high end for weaker binding. Consider `CN(C)c1ccc(C(c2ccc(N(C)C)cc2)c2cc([N+](=O)[O-])ccc2Cl)cc1` [Example 1, 4',4" bis(dimethylamino)-2-chloro-5-nitrotriphenylmethane], for which the Ki is more than 10000 nM. Turning to `CNc1ccc(C(c2ccc(NC)cc2)c2cc([N+](=O)[O-])ccc2Cl)cc1` [Example 23, 4',4" bis(methylamino)-2-chloro-5-nitrotriphenylmethane], the affinity, expressed as Ki, was 624 nM. `CN(C)c1ccc(C(c2ccc(N(C)C)cc2)c2cc(Cl)ccc2Cl)cc1` [Example 24, 4',4" bis(dimethylamino)-2,5-dichlorotriphenylmethane] showed a Ki of 2590 nM. `CNc1ccc(C(c2ccc(NC)cc2)c2cc(Cl)ccc2Cl)cc1` [Example 27, 4',4" bis(methylamino)-2,5-dichlorotriphenylmethane] showed a Ki of 318 nM. The compound `CC(=O)OCCN(C)c1ccc(C(c2ccc(N(C)CCOC(C)=O)cc2)c2cc([N+](=O)[O-])ccc2Cl)cc1` [Example 31, 4',4" bis(N-(2-acetoxyethyl) N-methylamino)-2-chloro-5-nitrotriphenylmethane] registered a Ki of 2680 nM. In the case of `CN(CCO)c1ccc(C(c2ccc(N(C)CCO)cc2)c2cc([N+](=O)[O-])ccc2Cl)cc1` [Example 32, 4',4" bis(N-(2-hydroxyethyl) N-methylamino)-2-chloro-5-nitrotriphenylmethane], affinity was put at a Ki of 536 nM. Turning to `O=[N+]([O-])c1ccc(Cl)c(C(c2ccc(NCc3ccccc3)cc2)c2ccc(NCc3ccccc3)cc2)c1` [Example 36, 4',4" bis(N-benzylamino)-2-chloro-5-nitrotriphenylmethane], the Ki was 2590 nM. The compound `CNc1ccc(C(c2ccc(N(C)C)cc2)c2cc([N+](=O)[O-])ccc2Cl)cc1` (stereo not shown) [Example 39, 4'-dimethylamino-4"-methylamino-2-chloro-5-nitrotriphenylmethane] showed a Ki of 510 nM. For `CN(C)c1ccc(C(c2ccc(N(C)CCO)cc2)c2cc([N+](=O)[O-])ccc2Cl)cc1` (stereo not shown) [Example 42, 4'-dimethylamino-4"-(N-methyl-N-(2-hydroxyethyl)amino)-2-chloro-5-nitrotriphenylmethane] the value was 187 nM; for `CNc1ccc(C(c2ccc(N(C)CCOC(C)=O)cc2)c2cc([N+](=O)[O-])ccc2Cl)cc1` (stereo not shown) [Example 49, 4'-methylamino-4"-(N-(2-acetoxyethyl)-N-methylamino)-2-chloro-5-nitrotriphenylmethane], 241 nM; for `CC(=O)OCCN(C)c1ccc(C(c2ccc(N(C)C)cc2)c2cc([N+](=O)[O-])ccc2Cl)cc1` (stereo not shown) [Example 51, 4'-dimethylamino-4"-(N-methyl-N-(2-acetoxyethyl)amino)-2-chloro-5-nitrotriphenylmethane], 1080 nM. For `CN(C)c1ccc(C(Oc2ccccc2)c2cc([N+](=O)[O-])ccc2Cl)cc1` (stereo not shown) [Example 52, phenyl-[(4'-dimethylaminophenyl)-(2-chloro-5-nitrophenyl)methyl] ether] the value was 698 nM; for `CN(C)c1ccc(C(Sc2ccccc2)c2cc([N+](=O)[O-])ccc2Cl)cc1` (stereo not shown) [Example 54, phenyl-[(4'-dimethylaminophenyl)-(2-chloro-5-nitrophenyl)methyl]thioether], 2590 nM.
